ChEMBL document CHEMBL1153227, “2,3,5-Trisubstituted pyridines as selective AKT inhibitors. Part II: Improved drug-like properties and kinase selectivity from azaindazoles” (Bioorg Med Chem Lett, 2010)
In brackets after ≈: the same amount, converted by molar mass. Activity calls are given as the source filed them. No cut-off for these calls is given here.

Assays:
[1] = target: RAC-alpha serine/threonine-protein kinase (Homo sapiens, UniProt P31749); assay: Inhibition of AKT1
[2] = target: RAC-beta serine/threonine-protein kinase (Homo sapiens, UniProt P31751); assay: Inhibition of AKT2
[3] = target: RAC-gamma serine/threonine-protein kinase (Homo sapiens, UniProt Q9Y243); assay: Inhibition of AKT3
BT-474 = assay: Cytotoxicity against human BT474 cells; type: functional, cell-based
LNCaP = assay: Cytotoxicity against human LNCAP cells; type: functional, cell-based
HFF = assay: Cytotoxicity against HFF cells; type: cell-based; details: Homo sapiens
Cytochrome P450 3A4 = Cytochrome P450 3A4 (Homo sapiens, UniProt P08684); assay: Inhibition of CYP3A4; type: ADME
[4] = Solubility of the compound; type: physicochemical
[5] = Protein binding in SCID mouse plasma; type: ADME, cell-free; details: read-out: PPB (converted)
Mus musculus [6] = assay: Inhibition of GSK3-beta phosphorylation in human BT474 cell xenografted SCID mouse at 50 mg/kg, ip; type: functional; details: BT-474, ip, route intraperitoneal
Mus musculus [7] = assay: Inhibition of GSK3-beta phosphorylation in human BT474 cell xenografted SCID mouse at 12.5 mg/kg, ip; type: functional, organism-based; design: dose 12.5 mg/kg; details: BT-474
Mus musculus [8] = assay: Inhibition of GSK3-beta phosphorylation in human BT474 cell xenografted SCID mouse at 25 mg/kg, ip; type: functional, organism-based; design: dose 25 mg/kg; details: BT-474
[9] = Drug level in tumor of human BT474 cells xenografted in SCID mouse at 50 mg/kg, ip; type: ADME, organism-based, Neoplasm, BT-474; design: dose 50 mg/kg, route intraperitoneal; details: in vivo
[10] = target: Rho-associated protein kinase 1 (Homo sapiens, UniProt Q13464); assay: Inhibition of ROCK1
[11] = target: Ribosomal protein S6 kinase beta-1 (Homo sapiens, UniProt P23443); assay: Inhibition of P70S6K
[12] = target: Serine/threonine-protein kinase PAK 1 (Homo sapiens, UniProt Q13153); assay: Inhibition of PAK1
[13] = Inhibition of PKA
[14] = Inhibition of RSK
Cytochrome P450 1A2 = target: T1, Cytochrome P450 1A2 (Homo sapiens, UniProt P05177); assay: Inhibition of CYP1A2; type: ADME
T1 sequence (P05177 whole entry): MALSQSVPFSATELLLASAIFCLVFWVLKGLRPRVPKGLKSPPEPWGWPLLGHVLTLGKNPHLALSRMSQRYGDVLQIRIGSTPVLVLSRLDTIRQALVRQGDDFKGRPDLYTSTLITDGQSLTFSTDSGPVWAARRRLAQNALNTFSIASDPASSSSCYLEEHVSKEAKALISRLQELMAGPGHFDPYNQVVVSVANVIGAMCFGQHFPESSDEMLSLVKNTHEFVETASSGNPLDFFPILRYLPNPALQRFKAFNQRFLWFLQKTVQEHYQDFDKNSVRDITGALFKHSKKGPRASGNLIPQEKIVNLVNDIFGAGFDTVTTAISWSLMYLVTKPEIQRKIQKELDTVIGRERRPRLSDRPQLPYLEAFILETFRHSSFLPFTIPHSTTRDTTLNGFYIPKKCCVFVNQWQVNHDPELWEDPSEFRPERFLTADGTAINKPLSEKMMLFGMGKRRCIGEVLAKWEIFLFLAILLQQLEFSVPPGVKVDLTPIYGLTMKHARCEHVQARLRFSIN

Cytochrome P450 2C19 = Cytochrome P450 2C19 (Homo sapiens, UniProt P33261); assay: Inhibition of CYP2C19; type: ADME
Cytochrome P450 2D6 = Cytochrome P450 2D6 (Homo sapiens, UniProt P10635); assay: Inhibition of CYP2D6; type: ADME

Sequence of RAC-gamma serine/threonine-protein kinase (Q9Y243 whole entry): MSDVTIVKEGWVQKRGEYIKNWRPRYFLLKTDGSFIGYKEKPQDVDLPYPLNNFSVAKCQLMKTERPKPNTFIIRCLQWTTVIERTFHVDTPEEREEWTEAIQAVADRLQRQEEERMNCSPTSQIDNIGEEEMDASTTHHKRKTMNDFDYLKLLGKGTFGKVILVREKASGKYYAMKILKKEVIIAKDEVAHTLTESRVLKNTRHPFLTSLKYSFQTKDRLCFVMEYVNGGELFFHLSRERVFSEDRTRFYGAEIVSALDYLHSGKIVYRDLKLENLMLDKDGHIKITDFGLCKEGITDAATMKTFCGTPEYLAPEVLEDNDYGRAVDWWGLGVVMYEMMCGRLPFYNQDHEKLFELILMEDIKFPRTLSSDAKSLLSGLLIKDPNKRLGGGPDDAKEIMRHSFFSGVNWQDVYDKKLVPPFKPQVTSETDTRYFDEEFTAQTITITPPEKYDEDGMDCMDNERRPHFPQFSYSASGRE
Sequence of RAC-alpha serine/threonine-protein kinase (P31749 whole entry): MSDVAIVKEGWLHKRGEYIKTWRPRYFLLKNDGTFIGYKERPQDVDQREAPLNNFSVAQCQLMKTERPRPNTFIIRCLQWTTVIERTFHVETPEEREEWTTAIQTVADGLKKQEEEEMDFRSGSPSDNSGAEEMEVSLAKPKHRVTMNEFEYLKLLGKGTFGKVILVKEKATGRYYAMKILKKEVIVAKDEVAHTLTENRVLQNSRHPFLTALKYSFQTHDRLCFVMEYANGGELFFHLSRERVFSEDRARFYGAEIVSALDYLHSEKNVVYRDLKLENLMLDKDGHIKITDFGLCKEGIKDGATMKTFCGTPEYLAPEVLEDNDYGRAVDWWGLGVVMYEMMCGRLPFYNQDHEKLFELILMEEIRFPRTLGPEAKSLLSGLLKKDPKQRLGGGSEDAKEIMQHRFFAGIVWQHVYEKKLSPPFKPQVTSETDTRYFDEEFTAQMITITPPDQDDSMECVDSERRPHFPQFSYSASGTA
Sequence of RAC-beta serine/threonine-protein kinase (P31751 whole entry): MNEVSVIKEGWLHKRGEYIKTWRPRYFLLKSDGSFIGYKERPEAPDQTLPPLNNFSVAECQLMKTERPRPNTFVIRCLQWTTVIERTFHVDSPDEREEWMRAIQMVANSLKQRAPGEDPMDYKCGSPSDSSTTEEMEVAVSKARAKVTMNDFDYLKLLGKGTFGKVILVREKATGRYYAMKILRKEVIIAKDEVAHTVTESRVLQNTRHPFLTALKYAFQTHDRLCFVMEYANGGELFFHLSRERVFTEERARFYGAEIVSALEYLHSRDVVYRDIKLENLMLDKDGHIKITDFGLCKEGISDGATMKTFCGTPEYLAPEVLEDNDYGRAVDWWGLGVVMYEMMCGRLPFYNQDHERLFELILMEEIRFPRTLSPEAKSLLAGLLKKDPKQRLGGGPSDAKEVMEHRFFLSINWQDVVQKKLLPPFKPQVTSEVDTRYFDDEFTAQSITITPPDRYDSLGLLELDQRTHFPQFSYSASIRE
Sequence of Cytochrome P450 3A4 (P08684 whole entry): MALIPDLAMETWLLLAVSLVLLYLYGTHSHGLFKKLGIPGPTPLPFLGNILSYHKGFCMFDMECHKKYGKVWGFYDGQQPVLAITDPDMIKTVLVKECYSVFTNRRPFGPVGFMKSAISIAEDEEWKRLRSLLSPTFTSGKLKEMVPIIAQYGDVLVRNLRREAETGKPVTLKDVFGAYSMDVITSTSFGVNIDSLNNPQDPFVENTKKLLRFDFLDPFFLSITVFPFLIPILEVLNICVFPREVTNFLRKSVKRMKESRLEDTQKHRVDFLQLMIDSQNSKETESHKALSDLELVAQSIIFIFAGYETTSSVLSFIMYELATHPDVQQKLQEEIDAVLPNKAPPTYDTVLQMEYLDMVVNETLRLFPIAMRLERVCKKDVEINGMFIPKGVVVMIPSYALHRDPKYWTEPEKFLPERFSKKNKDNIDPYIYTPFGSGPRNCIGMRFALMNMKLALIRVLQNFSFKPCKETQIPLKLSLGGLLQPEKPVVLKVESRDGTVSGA
Sequence of Serine/threonine-protein kinase PAK 1 (Q13153 whole entry): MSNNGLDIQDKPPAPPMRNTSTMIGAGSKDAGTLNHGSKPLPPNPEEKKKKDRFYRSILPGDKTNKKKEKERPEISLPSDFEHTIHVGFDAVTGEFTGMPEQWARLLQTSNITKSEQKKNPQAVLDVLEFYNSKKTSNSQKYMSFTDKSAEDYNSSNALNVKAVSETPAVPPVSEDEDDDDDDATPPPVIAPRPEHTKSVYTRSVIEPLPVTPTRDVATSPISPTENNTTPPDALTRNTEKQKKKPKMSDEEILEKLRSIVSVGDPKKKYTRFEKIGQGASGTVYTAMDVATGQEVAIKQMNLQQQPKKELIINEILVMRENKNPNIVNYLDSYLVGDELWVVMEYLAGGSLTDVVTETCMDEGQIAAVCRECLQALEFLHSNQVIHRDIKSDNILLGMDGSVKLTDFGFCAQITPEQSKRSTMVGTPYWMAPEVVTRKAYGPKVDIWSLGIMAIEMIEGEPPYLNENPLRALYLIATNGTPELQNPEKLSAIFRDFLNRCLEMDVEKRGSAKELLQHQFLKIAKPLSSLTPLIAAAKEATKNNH
Sequence of Rho-associated protein kinase 1 (Q13464 whole entry): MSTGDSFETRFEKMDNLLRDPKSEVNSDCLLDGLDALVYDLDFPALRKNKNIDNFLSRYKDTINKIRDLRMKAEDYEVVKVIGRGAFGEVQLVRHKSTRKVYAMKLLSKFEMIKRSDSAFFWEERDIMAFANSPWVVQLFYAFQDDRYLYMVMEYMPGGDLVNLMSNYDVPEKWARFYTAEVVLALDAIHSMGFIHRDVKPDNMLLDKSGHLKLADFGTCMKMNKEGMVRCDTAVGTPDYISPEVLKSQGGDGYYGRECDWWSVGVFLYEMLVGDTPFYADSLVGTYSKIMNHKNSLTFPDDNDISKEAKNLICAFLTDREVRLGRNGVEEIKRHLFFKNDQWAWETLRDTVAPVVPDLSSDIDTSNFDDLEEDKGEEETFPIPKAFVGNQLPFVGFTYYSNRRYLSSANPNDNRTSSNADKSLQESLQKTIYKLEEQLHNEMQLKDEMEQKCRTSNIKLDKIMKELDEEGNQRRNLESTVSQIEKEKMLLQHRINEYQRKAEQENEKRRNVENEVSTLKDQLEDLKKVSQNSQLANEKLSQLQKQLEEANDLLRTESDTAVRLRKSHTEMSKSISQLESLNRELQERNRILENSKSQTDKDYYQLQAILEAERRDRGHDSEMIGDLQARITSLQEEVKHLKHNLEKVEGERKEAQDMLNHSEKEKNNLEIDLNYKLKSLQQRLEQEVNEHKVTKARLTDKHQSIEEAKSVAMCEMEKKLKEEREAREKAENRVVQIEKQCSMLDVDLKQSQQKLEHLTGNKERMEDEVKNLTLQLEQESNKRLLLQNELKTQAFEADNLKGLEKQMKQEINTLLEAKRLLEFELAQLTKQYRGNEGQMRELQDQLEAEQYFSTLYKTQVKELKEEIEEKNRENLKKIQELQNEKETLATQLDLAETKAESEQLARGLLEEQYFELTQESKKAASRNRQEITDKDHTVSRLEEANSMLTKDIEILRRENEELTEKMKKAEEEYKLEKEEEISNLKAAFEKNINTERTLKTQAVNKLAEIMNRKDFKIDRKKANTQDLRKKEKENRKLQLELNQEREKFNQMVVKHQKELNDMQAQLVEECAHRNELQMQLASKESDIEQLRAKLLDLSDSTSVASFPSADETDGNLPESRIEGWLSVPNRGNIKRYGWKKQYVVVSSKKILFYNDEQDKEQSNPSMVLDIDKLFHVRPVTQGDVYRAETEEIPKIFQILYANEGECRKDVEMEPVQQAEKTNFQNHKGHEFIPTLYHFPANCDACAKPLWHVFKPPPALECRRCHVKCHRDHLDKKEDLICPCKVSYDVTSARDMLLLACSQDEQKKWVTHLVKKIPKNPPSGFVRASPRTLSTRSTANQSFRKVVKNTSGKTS
Sequence of Cytochrome P450 2C19 (P33261 whole entry): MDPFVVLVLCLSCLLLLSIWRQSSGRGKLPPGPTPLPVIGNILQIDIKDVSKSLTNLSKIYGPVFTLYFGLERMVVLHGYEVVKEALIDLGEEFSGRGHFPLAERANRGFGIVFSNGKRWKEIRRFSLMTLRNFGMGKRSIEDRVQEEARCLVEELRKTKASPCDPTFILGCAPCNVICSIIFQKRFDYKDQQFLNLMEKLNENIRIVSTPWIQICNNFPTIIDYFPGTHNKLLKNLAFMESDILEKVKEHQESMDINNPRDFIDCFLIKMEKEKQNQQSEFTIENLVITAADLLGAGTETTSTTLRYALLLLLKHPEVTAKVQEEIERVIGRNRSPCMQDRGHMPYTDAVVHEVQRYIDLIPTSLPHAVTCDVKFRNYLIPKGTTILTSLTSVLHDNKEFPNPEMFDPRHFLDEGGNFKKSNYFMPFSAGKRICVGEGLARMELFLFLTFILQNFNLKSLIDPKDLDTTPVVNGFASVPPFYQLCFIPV
Sequence of Ribosomal protein S6 kinase beta-1 (P23443 whole entry): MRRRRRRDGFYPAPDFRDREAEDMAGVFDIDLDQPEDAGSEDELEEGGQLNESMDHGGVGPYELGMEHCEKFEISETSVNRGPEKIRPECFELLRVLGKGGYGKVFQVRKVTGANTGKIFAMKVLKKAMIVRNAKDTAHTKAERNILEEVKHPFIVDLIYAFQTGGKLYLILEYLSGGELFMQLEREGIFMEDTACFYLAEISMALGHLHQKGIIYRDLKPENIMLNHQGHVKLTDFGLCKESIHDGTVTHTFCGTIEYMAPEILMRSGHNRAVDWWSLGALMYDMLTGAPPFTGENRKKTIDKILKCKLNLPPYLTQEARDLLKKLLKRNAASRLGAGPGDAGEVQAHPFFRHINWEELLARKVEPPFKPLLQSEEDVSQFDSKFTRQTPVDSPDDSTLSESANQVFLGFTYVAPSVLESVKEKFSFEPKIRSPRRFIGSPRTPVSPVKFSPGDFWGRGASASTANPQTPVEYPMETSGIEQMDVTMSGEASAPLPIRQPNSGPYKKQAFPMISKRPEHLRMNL

SMILES	IC50 [1] [nM]	IC50 [2] [nM]	IC50 [3] [nM]	IC50 (Cytochrome P450 3A4) [nM]	solubility [4] [µM]	fraction unbound [5]	IC50 (BT-474) [nM]	IC50 (LNCaP) [nM]	IC50 (HFF) [nM]	other results
Cc1n[nH]c2cnc(-c3cc(OC[C@@H](N)Cc4c[nH]c5ccccc45)cnc3-c3ccoc3)nc12	1	31	15	1300	205 (≈ 95.4 µg/mL)	0.155	640	540	30000	
Cc1n[nH]c2ncc(-c3cc(OC[C@@H](N)Cc4c[nH]c5ccccc45)cnc3-c3ccoc3)nc12	2	39	10	400	200 (≈ 93.1 µg/mL)	0.091	370	96	14300	inhibition in vivo at 50 mg/kg (Mus musculus [6]): 80%; Activity (Mus musculus [7]): inactive; Activity (Mus musculus [8]): inactive; Drug uptake [9]: 3798 ng/mL
Cc1[nH]nc2ccc(-c3cc(OC[C@@H](N)Cc4c[nH]c5ccccc45)cnc3-c3ccoc3)cc12	1	12	1	50	52 (≈ 24.1 µg/mL)	0.041	340	190	5500	IC50 [10]: 1580 nM; IC50 [11]: 7 nM; IC50 [12]: 31 nM; IC50 [13]: 1 nM; IC50 [14]: 25 nM; IC50 (Cytochrome P450 1A2): 50000 nM; IC50 (Cytochrome P450 2C19): 2000 nM; IC50 (Cytochrome P450 2D6): 5000 nM

Second part, led by results:

IC50 [1] [nM]	IC50 [2] [nM]	IC50 [3] [nM]	IC50 (Cytochrome P450 3A4) [nM]	solubility [4] [µM]	fraction unbound [5]	SMILES	IC50 (BT-474) [nM]	IC50 (LNCaP) [nM]	IC50 (HFF) [nM]	other results
12			100	225 (≈ 105 µg/mL)	0.069	Cc1n[nH]c2ccc(-c3cc(OC[C@@H](N)Cc4c[nH]c5ccccc45)cnc3-c3ccoc3)nc12	2100	830	30000	
1			200	108 (≈ 50.2 µg/mL)	0.047	Cc1n[nH]c2ncc(-c3cc(OC[C@@H](N)Cc4c[nH]c5ccccc45)cnc3-c3ccoc3)cc12	300	85	6600	
1	6	1	16		0.057	Cc1n[nH]c2cnc(-c3cc(OC[C@@H](N)Cc4c[nH]c5ccccc45)cnc3-c3ccoc3)cc12	750	230	6500	
